Laboratory results as given in ChEMBL document CHEMBL1201862, “PubChem BioAssay data set” (2004).
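96-well plates; 48 h exposure; 5 concentrations. Endpoints by linear interpolation between flanking doses. Not reached: highest tested concentration assigned. GI50 marks 50% less growth.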 Activity calls are given as the source filed them. No stated cut-off is given here; in the data, active = GI50 up to about 1.1 µM and inactive = higher.

What was measured:
Assay in all cases: NCI-60 cell line screen, 48 h
ACHN = system: ACHN
EKVX = system: EKVX
HCT-116 = system: HCT-116
HOP-92 = system: HOP-92
K562 = system: K562
LOX IMVI = system: LOX IMVI
MCF7 = system: MCF7
NCI-H460 = system: NCI-H460
NCI/ADR-RES = system: NCI/ADR-RES
OVCAR-3 = system: OVCAR-3
OVCAR-4 = system: OVCAR-4
OVCAR-8 = system: OVCAR-8
PC-3 = system: PC-3
RPMI-8226 = system: RPMI-8226
SF-539 = system: SF-539
SK-MEL-28 = system: SK-MEL-28
SK-MEL-5 = system: SK-MEL-5
UACC-257 = system: UACC-257
TK-10 = system: TK-10

Measured: GI50

CCOC(=O)c1cn(C)c(=S)n2c1nc1ccccc12
inactive: ACHN 49.1 µM | EKVX > 100 µM | HCT-116 54.3 µM | HOP-92 42.8 µM | K562 > 100 µM | LOX IMVI 56 µM | MCF7 44.6 µM | NCI-H460 45.6 µM | NCI/ADR-RES 37.8 µM | OVCAR-3 > 100 µM | OVCAR-4 34.8 µM | OVCAR-8 30.8 µM | PC-3 48.1 µM | RPMI-8226 30.9 µM | SF-539 > 100 µM | SK-MEL-28 > 100 µM | SK-MEL-5 86.7 µM | UACC-257 > 100 µM

O=C(c1ccco1)N(Cc1cccnc1)C(=S)N(Cc1cccnc1)C(=O)c1ccco1
inactive: ACHN 17 µM | EKVX 19.8 µM | HCT-116 7.67 µM | HOP-92 17.7 µM | K562 4.84 µM | LOX IMVI 5.05 µM | MCF7 3.86 µM | NCI-H460 22.6 µM | NCI/ADR-RES 34.2 µM | OVCAR-3 6.35 µM | OVCAR-4 20.4 µM | OVCAR-8 19.4 µM | PC-3 6.19 µM | SF-539 11.1 µM | SK-MEL-28 20.1 µM | SK-MEL-5 14.6 µM | TK-10 10.8 µM | UACC-257 14 µM

COc1ccc(-c2cc(-c3ccncc3)nc(N)c2-c2ccc(F)cc2)cc1
inactive: ACHN 3.76 µM | EKVX > 100 µM | HCT-116 11.9 µM | HOP-92 83.4 µM | K562 > 100 µM | LOX IMVI 22.8 µM | MCF7 24.3 µM | NCI-H460 15.5 µM | NCI/ADR-RES 24.9 µM | OVCAR-3 27.9 µM | OVCAR-4 26.7 µM | OVCAR-8 41.3 µM | PC-3 67.1 µM | RPMI-8226 > 100 µM | SF-539 19.4 µM | SK-MEL-5 35.1 µM | TK-10 35.2 µM | UACC-257 24.2 µM

CCN(CC)c1ccc2cc(C(=O)Nc3ccccc3OC)c(=N)oc2c1
inactive: ACHN 11.3 µM | EKVX 32.8 µM | HCT-116 15.4 µM | K562 18.5 µM | LOX IMVI 22.9 µM | MCF7 16.3 µM | NCI-H460 5.16 µM | NCI/ADR-RES 23.7 µM | OVCAR-3 43.2 µM | OVCAR-4 27.5 µM | OVCAR-8 3.61 µM | PC-3 11.8 µM | RPMI-8226 15.9 µM | SF-539 46.6 µM | SK-MEL-28 32.9 µM | SK-MEL-5 32.1 µM | UACC-257 40.8 µM
